Series [1] addresses Amyloid-beta precursor protein (Homo sapiens) (UniProt P05067). In words: Inhibition of self-induced aggregation of amyloid beta (1 to 42 residues) (unknown origin) at 25 uM incubated for 48 hrs by Thioflavin T fluorescence assay relative to control.
Series [2] concerns the target T1, Amine oxidase [flavin-containing] B (Homo sapiens, UniProt P27338).
T1 sequence (P27338 whole entry): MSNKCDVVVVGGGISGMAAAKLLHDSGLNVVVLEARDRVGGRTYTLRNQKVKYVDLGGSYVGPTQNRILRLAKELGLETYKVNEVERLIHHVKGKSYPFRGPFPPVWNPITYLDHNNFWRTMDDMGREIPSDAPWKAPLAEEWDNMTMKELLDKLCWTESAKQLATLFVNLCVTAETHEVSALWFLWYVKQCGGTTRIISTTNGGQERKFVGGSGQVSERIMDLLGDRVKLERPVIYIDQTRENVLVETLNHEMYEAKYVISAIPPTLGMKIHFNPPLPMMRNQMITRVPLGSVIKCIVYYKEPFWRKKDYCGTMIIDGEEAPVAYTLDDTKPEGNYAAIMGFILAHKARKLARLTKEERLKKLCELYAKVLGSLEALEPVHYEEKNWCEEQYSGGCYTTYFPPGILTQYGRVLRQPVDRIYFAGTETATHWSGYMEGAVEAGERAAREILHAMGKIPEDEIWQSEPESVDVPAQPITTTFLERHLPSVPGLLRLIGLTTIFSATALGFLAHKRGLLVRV
In words: Inhibition of human MAO-B using p-tyramine as substrate preincubated for 15 mins followed by substrate addition measured after 20 mins by fluorescence-based Amplex Red MAO assay.

The species named for series [3] is Homo sapiens. Description: Selectivity index, ratio of IC50 for human MAO-A to IC50 for human MAO-B.
The nature of series [4]: Antioxidant activity assessed as DPPH radical scavenging activity after 30 mins. The format is functional.
Series [5] has as its target T2, Amine oxidase [flavin-containing] A (Homo sapiens, UniProt P21397).
T2 sequence (P21397 whole entry): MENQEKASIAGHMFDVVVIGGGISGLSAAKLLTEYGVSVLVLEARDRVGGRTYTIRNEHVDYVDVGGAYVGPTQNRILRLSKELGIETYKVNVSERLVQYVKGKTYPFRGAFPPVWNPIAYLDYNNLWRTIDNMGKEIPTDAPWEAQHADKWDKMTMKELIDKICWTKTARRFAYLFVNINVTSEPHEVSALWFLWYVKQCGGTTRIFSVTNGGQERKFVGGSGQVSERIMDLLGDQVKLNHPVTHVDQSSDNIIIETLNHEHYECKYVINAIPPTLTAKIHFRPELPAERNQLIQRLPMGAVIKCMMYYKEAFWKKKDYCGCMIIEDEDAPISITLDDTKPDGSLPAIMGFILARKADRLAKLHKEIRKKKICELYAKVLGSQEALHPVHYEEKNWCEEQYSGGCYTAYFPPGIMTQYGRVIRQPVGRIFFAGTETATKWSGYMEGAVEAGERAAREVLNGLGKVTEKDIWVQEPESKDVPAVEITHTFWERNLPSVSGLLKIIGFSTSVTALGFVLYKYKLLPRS
In words: Inhibition of human MAO-A at 200 uM using p-tyramine as substrate preincubated for 15 mins followed by substrate addition measured after 20 mins by fluorescence-based Amplex Red MAO assay.

Series [6] deals with PC-12. Description: Cytotoxicity against rat PC12 cells at 25 uM after 24 hrs by MTT assay. The format is cell-based. As to conditions: pc-12, 24 h. For orientation: Tetrazolium assays rely on reduction of a dye to a coloured formazan, in cell work by metabolically active cells.
Series [7] is described as follows: Antioxidant activity assessed as ABTS radical scavenging activity at 25 uM after 6 mins. The format is functional.
In series [8] the test system is PC-12. Description: Neuroprotective activity against H2O2-induced cytotoxicity in rat PC12 cells assessed as increase in cell viability at 25 uM preincubated for 24 hrs followed by H2O2 addition and measured after 24 hrs by MTT assay. The series is classed as functional, cell-based.
Series [9] in a line: in vitro. More on the design: dose or concentration left out as unconfirmed. The conditions noted are these: PAMPA. Background: The PAMPA barrier holds no transporters, so it reflects passive diffusion.
Description: Permeability of the compound at 100 mg/ml after 16 hrs by BBB-PAMPA method
The target of series [10] is T2, Amine oxidase [flavin-containing] A. Description: Inhibition of human MAO-A using p-tyramine as substrate preincubated for 15 mins followed by substrate addition measured after 20 mins by fluorescence-based Amplex Red MAO assay.

The values below come from ChEMBL document CHEMBL4177594, “Design, synthesis, and evaluation of salicyladimine derivatives as multitarget-directed ligands against Alzheimer's disease” (Bioorg Med Chem, 2017).

Calls of active or inactive are those of the source. The rule behind the calls is not given here. A value given as a limit tells only on which side of the number the result lay.

Chain of Amyloid-beta precursor protein (Homo sapiens) (P05067 whole entry, the tested form may be a part): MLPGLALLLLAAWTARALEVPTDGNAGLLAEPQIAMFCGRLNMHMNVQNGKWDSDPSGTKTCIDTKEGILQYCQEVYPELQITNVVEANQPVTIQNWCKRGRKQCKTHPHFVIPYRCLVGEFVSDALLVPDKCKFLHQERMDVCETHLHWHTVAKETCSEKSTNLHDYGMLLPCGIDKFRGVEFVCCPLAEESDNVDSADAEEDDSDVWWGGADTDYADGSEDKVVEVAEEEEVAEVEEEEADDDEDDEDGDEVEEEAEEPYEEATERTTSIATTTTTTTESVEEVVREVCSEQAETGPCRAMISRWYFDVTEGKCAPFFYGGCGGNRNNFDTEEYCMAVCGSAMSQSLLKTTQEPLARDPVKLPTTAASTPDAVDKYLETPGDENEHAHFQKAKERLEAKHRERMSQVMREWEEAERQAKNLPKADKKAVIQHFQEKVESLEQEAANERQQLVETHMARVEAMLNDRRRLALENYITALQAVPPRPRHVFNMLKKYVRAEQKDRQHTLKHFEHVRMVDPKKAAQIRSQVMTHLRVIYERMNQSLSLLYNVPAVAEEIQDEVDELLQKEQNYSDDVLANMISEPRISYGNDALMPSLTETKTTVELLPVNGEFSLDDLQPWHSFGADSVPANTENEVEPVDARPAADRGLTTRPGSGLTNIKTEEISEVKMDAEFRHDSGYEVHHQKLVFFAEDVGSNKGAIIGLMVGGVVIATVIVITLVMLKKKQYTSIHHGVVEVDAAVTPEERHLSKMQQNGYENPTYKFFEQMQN

By inhibition is commonly meant the relative decrease from the control value, in per cent. One may read the IC50 as the concentration needed to halve the response being measured. As for `COc1ccc(O)c(/C=N/c2ccc(OCc3ccccc3)cc2)c1`, in [1], the inhibition came out at 56.6%. Further, the results for the IC50 in series [2] and in series [4] were 10.7 µM and over 200 µM, respectively. For the same compound, the Ratio IC50 in series [3] was over 9.34. Moreover, the “inhibition (INH)” value in [5] was “Not Active”. The Activity entry in series [6] is on record as “Non-Toxic”.

`Cc1cccc(/C=N/c2ccc(OCc3ccccc3)cc2)c1O` came in with an inhibition in series [1] of 53.7%. The IC50 in series [2] is 15.5 µM; in [4] it was over 200 µM. The Ratio IC50 in series [3] is over 6.47. In addition, the “inhibition (INH)” value in series [5] was “Not Active”. Besides, the Activity result in [6] was “Non-Toxic”.

With `Cc1ccc(O)c(/C=N/c2ccc(OCc3ccccc3)cc2)c1`, the inhibition in series [1] is 61.9%. For the same compound, the 50% inhibitory concentration (IC50) in series [2] is 24.6 µM; in series [4], over 200 µM. For the same compound, the Ratio IC50 in series [3] was over 4.06. In addition, the “inhibition (INH)” value in series [5] is reported as “Not Active”. In addition, the Activity result in series [6] was “Non-Toxic”.

In turn, `Oc1cc(O)c(/C=N/c2ccc(OCc3ccccc3)cc2)c(O)c1` yielded an inhibition in series [1] of 88.5%. Further, the IC50 worked out at 10.1 µM in [2] and 23.9 µM in [4]. Further, in series [3], the Ratio IC50 is over 9.86. For the same compound, the Activity (umolequiv/umol) in [7] was 0.69. In addition, in series [5], the “inhibition (INH)” value is recorded as “Not Active”. Further, in series [6], the Activity entry is listed as “Non-Toxic”. Moreover, in series [8], the outcome was inactive.

In general, Papp refers to a coefficient for how fast a substance crosses the barrier. Compound `C[C@]12CC[C@@H]3c4ccc(O)cc4CC[C@H]3[C@@H]1CC[C@@H]2O` [ESTRADIOL] registered a Papp at 16 h in series [9] of 9.17 ×10⁻⁶ cm/s.

For `Oc1ccc(O)c(/C=N/c2ccc(OCc3ccccc3)cc2)c1`, the inhibition in [1] is 49.2%. Besides, the figures for the IC50 in [10], in series [2] and in series [4] were 18.8 µM, 1.23 µM and 21.3 µM, respectively. The Ratio IC50 in series [3] is 15.3. In [7], the Activity (umolequiv/umol) worked out at 0.97. Further, the Activity result in series [6] was “Non-Toxic”. Also, the result in [8] was Active.

In series [1], `Oc1ccc(Cl)cc1/C=N/c1ccc(OCc2ccccc2)cc1` displayed an inhibition of 59.6%. Also, the IC50 in series [2] was 24.8 µM; in series [4] it was over 200 µM. For the same compound, the Ratio IC50 in series [3] was over 4.03. Besides, the “inhibition (INH)” value in series [5] is “Not Active”. For the same compound, in series [6], the Activity result is “Non-Toxic”.

For the compound `COc1cccc(/C=N/c2ccc(OCc3ccccc3)cc2)c1O`, the inhibition in series [1] was 53.4%. Also, the IC50 in [2] was 6.5 µM; in series [4], over 200 µM. Besides, the Ratio IC50 in series [3] was over 15.4. Further, in series [5], the “inhibition (INH)” value is recorded as “Not Active”. For the same compound, the Activity entry in [6] is “Non-Toxic”.

`Oc1ccc(/C=N/c2ccc(OCc3ccccc3)cc2)c(O)c1`: the inhibition in [1] stood at 59.8%. The 50% inhibitory concentration (IC50) in [2] is 6.78 µM; in series [4], over 200 µM. Besides, in [3], the Ratio IC50 is over 14.8. Besides, in series [5], the “inhibition (INH)” value is recorded as “Not Active”. Moreover, the Activity entry in series [6] was “Non-Toxic”.

Regarding `Oc1ccc(F)cc1/C=N/c1ccc(OCc2ccccc2)cc1`, in series [1], the inhibition was 84.4%. Besides, the IC50 was 15.3 µM in [2] and over 200 µM in series [4]. In series [3], the Ratio IC50 was over 6.54. The “inhibition (INH)” value in [5] was “Not Active”. For the same compound, the Activity entry in series [6] was “Non-Toxic”.

Consider `Cc1ccc(/C=N/c2ccc(OCc3ccccc3)cc2)c(O)c1`, for which, in series [1], the inhibition turned out to be 60.1%. Besides, the IC50 is 24.4 µM in series [2] and over 200 µM in series [4]. Further, the Ratio IC50 in series [3] was over 4.09. In addition, the “inhibition (INH)” value in [5] is recorded as “Not Active”. In addition, in series [6], the Activity entry is on record as “Non-Toxic”.

For `COc1ccc(/C=N/c2ccc(OCc3ccccc3)cc2)c(O)c1`, the inhibition in series [1] was determined as 69.5%. For the same compound, the values for the IC50 in series [2] and in series [4] were 23.6 µM and over 200 µM, respectively. Moreover, the Ratio IC50 in [3] is over 4.24. Moreover, in [5], the “inhibition (INH)” value is given as “Not Active”. The Activity entry in series [6] is reported as “Non-Toxic”.

For the compound `Oc1ccc2ccccc2c1/C=N/c1ccc(OCc2ccccc2)cc1`, in series [1], the inhibition amounted to 73.1%. Besides, the figures for the IC50 in series [2] and in series [4] were 19.2 µM and over 200 µM, respectively. Besides, the Ratio IC50 in series [3] was over 5.22. The “inhibition (INH)” value in [5] is on record as “Not Active”. Further, the Activity result in series [6] is reported as “Non-Toxic”.

With `Oc1ccc(/C=C/c2cc(O)cc(O)c2)cc1` [RESVERATROL], the concentration for half-maximal inhibition (IC50) in [4] came out at 82.7 µM. The Activity (umolequiv/umol) in series [7] was 1.57.

Consider `CCn1cc(C(=O)O)c(=O)c2cc(F)c(N3CCNC(C)C3)c(F)c21` (configuration not stated) [LOMEFLOXACIN], for which, in series [9], the apparent permeability coefficient (Papp) at 16 h is 1.59 ×10⁻⁶ cm/s.

As for `Oc1c(Br)cc(Br)cc1/C=N/c1ccc(OCc2ccccc2)cc1`, the inhibition in series [1] was determined as 66.7%. Further, the IC50 in series [2] is 10.8 µM; in series [4], over 200 µM. In addition, in series [3], the Ratio IC50 was over 9.23. Besides, the “inhibition (INH)” value in [5] is on record as “Not Active”. Besides, the Activity entry in series [6] is “Non-Toxic”.

`Oc1ccc(Br)cc1/C=N/c1ccc(OCc2ccccc2)cc1`: the inhibition in [1] stood at 54.3%. In addition, the IC50 is 31.7 µM in series [2] and over 200 µM in [4]. The Ratio IC50 in series [3] is over 3.15. For the same compound, the “inhibition (INH)” value in [5] is “Not Active”. For the same compound, the Activity result in series [6] is recorded as “Non-Toxic”.

With `Oc1ccccc1/C=N/c1ccc(OCc2ccccc2)cc1`, the inhibition in [1] amounted to 63.3%. Moreover, the IC50 in [2] is 25.1 µM; in [4], over 200 µM. Further, the Ratio IC50 in series [3] was over 3.98. The “inhibition (INH)” value in series [5] is “Not Active”. In addition, in series [6], the Activity result was “Non-Toxic”.

In series [1], `Oc1cccc(/C=N/c2ccc(OCc3ccccc3)cc2)c1O` registered an inhibition of 72.5%. The concentration for half-maximal inhibition (IC50) in series [10] turned out to be 11.4 µM; in [2] it was 6.87 µM; in [4], 13.3 µM. Moreover, the Ratio IC50 in series [3] is 1.66. Moreover, the Activity (umolequiv/umol) in [7] is 0.6. For the same compound, the Activity entry in series [6] was “Non-Toxic”. The result in series [8] was Active.

In turn, `O=[N+]([O-])c1ccc(O)c(/C=N/c2ccc(OCc3ccccc3)cc2)c1` returned an inhibition in series [1] of 70.2%. Besides, the 50% inhibitory concentration (IC50) in [2] is 60.9 µM; in series [4], over 200 µM. Besides, the Ratio IC50 in [3] was over 1.64. In addition, in series [5], the “inhibition (INH)” value is given as “Not Active”. Further, the Activity entry in series [6] is reported as “Non-Toxic”.
